From patent US20220009918A1, “Chemical Compounds” (GlaxoSmithKline Intellectual Property Development Limited, priority 2018, published 2022) come the findings set out here.

In this assay the target is T1, human H-PGDS (Homo sapiens, UniProt O60760).
T1 construct: Full length human H-PGDS cDNA (Invitrogen Ultimate ORF IOH13026) was amplified by PCR; 6-His (N); TEV protease cleavage site (N); made in house; host or cells: E. coli BL21 (DE3*) for H-PGDS; Sf9 insect cells (baculovirus) for COX-2
Briefly: H-PGDS RapidFire high throughput mass spectrometry assay. The assay is classed as biochemical. Particulars: inhibition of conversion of PGH2 to PGD2 by H-PGDS; mean pIC50; read-out: Potency Range (mean pIC50) (converted). The method, boiled down:
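Full-length His-tagged human H-PGDS from E. coli converted PGH2, generated in situ (~10 μM burst) from arachidonic acid by FLAG-tagged human COX-2 (Sf9-expressed). PGD2 and PGF2α (substrate surrogate) were measured by RapidFire SPE-triple quadrupole MS. Percent conversion was calculated, and inhibition was taken as reduced conversion.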

Molecules are shown by their SMILES.

T1 sequence (O60760 whole entry): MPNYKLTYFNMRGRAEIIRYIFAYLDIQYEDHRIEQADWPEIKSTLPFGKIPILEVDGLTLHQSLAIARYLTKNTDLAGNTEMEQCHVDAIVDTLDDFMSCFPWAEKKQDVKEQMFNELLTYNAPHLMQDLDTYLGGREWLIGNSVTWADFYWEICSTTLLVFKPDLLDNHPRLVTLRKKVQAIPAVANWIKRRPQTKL

As to `CC1(C)C[C@H](NC(=O)c2cnc(-c3cc(F)cc(Cl)c3)s2)C(=O)N1` (single isomer, unassigned) [Example 16], the IC50 is 10.2 to 100 nM.
